This note sets out measurements from EPA's ToxRefDB 2.

Data set [1] deals with dog. The conditions noted are these: Subchronic oral toxicity in nonrodent, beagle, Capsule, dose end: 90 day, group: systemic.
Data set [2] deals with rat. Particulars: Subchronic oral toxicity in rodents, other, Feed, dose end: 90 day, group: systemic.
Data set [3] deals with rat. The conditions noted are these: Prenatal developmental toxicity study; sprague dawley; Oral; Feed; dose end: 15 GD; group: maternal; systemic / in life observation / body weight / body weight gain + systemic / in life observation / food consumption / food consumption.
For data set [4], the system named is rat. The conditions noted are these: Prenatal developmental toxicity study, sprague dawley, Oral, Gavage/Intubation, dose end: 15 GD.
Data set [5] has as its system mouse. The conditions noted are these: Carcinogenicity, b6c3f1, Oral, Feed, dose end: 24 month.
For data set [6], the system named is mouse. The conditions noted are these: Carcinogenicity; cd1; Oral; Feed; dose end: 79 week; group: systemic; systemic / hematology / leukocyte (wbc) count differential / leukocyte (wbc) + systemic / hematology / lymphocyte / lymphocyte + systemic / ….
Data set [7] relates to dog. The conditions noted are these: Subchronic oral toxicity in nonrodent, beagle, Feed, dose end: 90 day, group: systemic.
Data set [8] deals with rat. Particulars: Subchronic oral toxicity in rodents, sprague dawley, Feed, dose end: 90 day, group: systemic.
Data set [9] deals with dog. The conditions noted are these: Chronic toxicity; beagle; Oral; Feed; dose end: 12 month; group: systemic; systemic / clinical chemistry / beta globulin / beta globulin + systemic / hematology / erythrocyte (rbc) count differential / erythrocyte (….
In data set [10] the test system is rat. Particulars: Multigenerational reproductive toxicity study; long evans; Oral; Gavage/Intubation; dose end: 1 generation; group: offspring; systemic / organ weight / vagina / absolute + systemic / organ weight / vagina / relative to body weight.
Data set [11] relates to rat. Particulars: Prenatal developmental toxicity study; wistar; Oral; Gavage/Intubation; dose end: 18 GD; group: developmental; systemic / organ weight / epididymis / absolute + systemic / organ weight / liver / absolute.
Data set [12] concerns rat. Particulars: Prenatal developmental toxicity study; wistar; Oral; Gavage/Intubation; dose end: 18 GD; group: developmental; systemic / organ weight / epididymis / absolute + systemic / organ weight / liver / absolute. The source holds these as a separate data set.
Data set [13] concerns rat. Particulars: Neurotoxicity screening battery; fischer; Inhalation; Whole-Body; dose end: 24 week; group: cannot be grouped; systemic / in life observation / body weight / body weight.
Data set [14] deals with rat. Particulars: Combined chronic toxicity/carcinogenicity, wistar, Inhalation, Whole-Body, dose end: 125 week, group: systemic.
Data set [15] concerns rat. The conditions noted are these: Multigenerational reproductive toxicity study; fischer; Inhalation; Whole-Body; dose end: 2 generation; group: parental; systemic / in life observation / body weight / body weight.
Data set [16] deals with rat. Particulars: Prenatal developmental toxicity study, fischer, Inhalation, Whole-Body, dose end: 15 GD.
[17] abbreviates: systemic / clinical chemistry / [other] / [other] + systemic / clinical chemistry / bilirubin / total bilirubin + systemic / clinical ….
Setting [18] is: systemic / in life observation / body weight / body weight gain.
Where [19] appears, read: systemic / in life observation / body weight / body weight gain + systemic / pathology microscopic / kidney / casts + systemic / pathology ….
Where [20] appears, read: group: developmental, systemic / in life observation / body weight / fetal weight.
The mark [21] stands for this setting: group: maternal, systemic / in life observation / body weight / body weight gain + systemic / in life observation / food consumption / food consumption.
[22] abbreviates: group: maternal, systemic / in life observation / body weight / body weight gain + systemic / in life observation / food consumption / food consumption + ….
Setting [23] is: group: cholinesterase, cholinesterase / cholinesterase / cholinesterase / brain cholinesterase (che).
[24] abbreviates: group: cholinesterase, cholinesterase / cholinesterase / cholinesterase / brain cholinesterase (che) + cholinesterase / cholinesterase / cholinesterase / plasma ….
[25] abbreviates: group: systemic, systemic / in life observation / clinical signs / convulsions + systemic / pathology gross / lymph node / enlarged + systemic / pathology ….
[26] abbreviates: systemic / in life observation / body weight / body weight gain + systemic / organ weight / spleen / relative to body weight + systemic / ….
[27] abbreviates: systemic / in life observation / body weight / body weight.
[28] abbreviates: group: developmental, developmental / developmental malformation / bone / supernumerary.

As to `CCc1occc(=O)c1O` [2-Ethyl-3-hydroxy-4H-pyran-4-one], the LOAEL (as a rule, the lowest dose or exposure tested at which an adverse effect was seen) in the data set on dog [1] (setting [17]) is > 500 mg/kg/day; with rat [2] (setting [19]), > 1000 mg/kg/day. The values for the NOAEL with dog [1] (setting [17]) and in the data set on rat [2] (setting [19]) were ≥ 500 mg/kg/day and ≥ 1000 mg/kg/day, respectively. Also, the NEL amounted to 125 mg/kg/day with dog [1] (systemic / clinical chemistry / bilirubin / total bilirubin + systemic / hematology / anemia / anemia - hemolytic + systemic / pathology …) and 250 mg/kg/day with rat [2] (setting [19]). Also, the results for the LEL in the data set on dog [1] (systemic / pathology microscopic / liver / hemosiderosis) and in the data set with rat [2] (setting [18]) were 250 mg/kg/day and 500 mg/kg/day, respectively.
As for `COP(=S)(OC)SCN1C(=O)c2ccccc2C1=O` [Phosmet], the LEL with rat [3] was determined as 27 mg/kg/day; in the data set with rat [4] (setting [20]), 5 mg/kg/day; in the data set with rat [4] (setting [21]), 20 mg/kg/day; with mouse [5] (setting [24]), 1 mg/kg/day; in the data set on mouse [5] (setting [25]) it was 1 mg/kg/day. Further, the LOAEL is > 29 mg/kg/day in the data set with rat [3]; > 30 mg/kg/day in the data set with rat [4] (setting [20]); > 30 mg/kg/day in the data set with rat [4] (setting [22]); 1 mg/kg/day in the data set with mouse [5] (setting [23]); 4 mg/kg/day with mouse [5] (group: systemic, systemic / in life observation / clinical signs / convulsions). Besides, the NEL with rat [3] was 22 mg/kg/day; with rat [4] (setting [20]), < 5 mg/kg/day; with rat [4] (setting [22]), 10 mg/kg/day; with mouse [5] (setting [24]), < 1 mg/kg/day; in the data set on mouse [5] (setting [25]) it was < 1 mg/kg/day. The NOAEL – broadly, the highest tested level that showed no adverse finding – in the data set on rat [3] was ≥ 29 mg/kg/day; in the data set on rat [4] (setting [20]) it was ≥ 30 mg/kg/day; in the data set on rat [4] (setting [22]), ≥ 30 mg/kg/day; with mouse [5] (setting [23]), < 1 mg/kg/day; in the data set on mouse [5] (group: systemic, systemic / in life observation / clinical signs / convulsions + systemic / pathology microscopic / liver / hepatocellular adenoma + systemic…), 1 mg/kg/day.
For `COc1ccc(-c2ccccc2)cc1NNC(=O)OC(C)C` [Bifenazate], the LEL worked out at 15.4 mg/kg/day in the data set with mouse [6], 0.9 mg/kg/day in the data set with dog [7] (setting [18]), 13.8 mg/kg/day in the data set on rat [8] (systemic / clinical chemistry / protein / protein) and 8.95 mg/kg/day in the data set on dog [9]. In addition, the LOAEL in the data set on mouse [6] was found to be 15.4 mg/kg/day; in the data set on dog [7] (systemic / hematology / mean corpuscular (cell) volume (mcv) / mean corpuscular (cell) volume (mcv) + systemic / hematology / mean …), 10.4 mg/kg/day; in the data set with rat [8] (setting [26]), 16.3 mg/kg/day; with dog [9], 8.95 mg/kg/day. The NEL in the data set on mouse [6] is 1.5 mg/kg/day; in the data set with dog [7] (setting [18]), < 0.9 mg/kg/day; in the data set with rat [8] (systemic / clinical chemistry / protein / protein + systemic / hematology / erythrocyte (rbc) count differential / erythrocyte (rbc) + …), 2.7 mg/kg/day; in the data set on dog [9], 1.01 mg/kg/day. Also, the NOAEL in the data set on mouse [6] was 1.5 mg/kg/day; in the data set on dog [7] (systemic / in life observation / body weight / body weight gain + systemic / hematology / mean corpuscular (cell) volume (mcv) / mean …), 0.9 mg/kg/day; in the data set on rat [8] (setting [26]), 3.2 mg/kg/day; in the data set on dog [9] it was 1.01 mg/kg/day.
Turning to `[O][Cl+][O-]` [Chlorine dioxide], in the data set on rat [10], the LEL was 10 mg/kg/day, the LOAEL was > 10 mg/kg/day, the NEL came out at 5 mg/kg/day and the NOAEL is ≥ 10 mg/kg/day.
In the case of `CCCCCCCCCc1ccc(O)cc1` [4-Nonylphenol], in the data set with rat [11], the LEL amounted to 15 mg/kg/day, the LOAEL is > 75 mg/kg/day, the NEL was determined as 3 mg/kg/day and the NOAEL was ≥ 75 mg/kg/day. In the data set on rat [12], the LEL turned out to be 15 mg/kg/day, the LOAEL is > 75 mg/kg/day, the NEL was 3 mg/kg/day and the NOAEL was ≥ 75 mg/kg/day.
On to `CC1CO1` (stereo unspecified) [1,2-Propylene oxide], for which the LEL in the data set with rat [13] stood at 100 ppm; in the data set with rat [14] (setting [27]) it was 30 ppm; in the data set with rat [15], 30 ppm; with rat [16] (setting [28]), 500 ppm; in the data set on rat [16] (setting [22]), 500 ppm. Further, the LOAEL in the data set on rat [13] is > 300 ppm; in the data set with rat [14] (systemic / pathology microscopic / nose / [other] + systemic / pathology microscopic / nose / hyperplasia) it was 100 ppm; in the data set on rat [15], > 300 ppm; in the data set with rat [16] (setting [28]), 500 ppm; in the data set on rat [16] (setting [21]), 500 ppm. Further, the NEL in the data set with rat [13] was 30 ppm; with rat [14] (setting [27]), < 30 ppm; with rat [15], < 30 ppm; in the data set on rat [16] (setting [28]), 300 ppm; in the data set on rat [16] (setting [22]), 300 ppm. Also, the NOAEL in the data set on rat [13] is ≥ 300 ppm; in the data set with rat [14] (systemic / pathology microscopic / nose / [other] + systemic / pathology microscopic / nose / hyperplasia + systemic / pathology microscopic…), 30 ppm; with rat [15] it was ≥ 300 ppm; in the data set on rat [16] (setting [28]) it was 300 ppm; with rat [16] (setting [22]), 300 ppm.
